US7338957B2, “Compounds and compositions as protein kinase inhibitors” (IRM LLC, priority 2003, dated 2008)

Assays:
[1] = target: T1, M351T BCR-Abl (Homo sapiens, UniProt P00519, M351T); assay: Antiproliferative effect on Ba/F3 cells expressing M351T BCR-Abl; assay type: cell-based; conditions: Ba/F3 cells expressing M351T mutant
T1 construct: expressed in transfected cells; host or cells: Ba/F3; the other entry of the earlier key: BCR (P11274, Breakpoint cluster region protein)
Description: (§1) 32D-p210 cells are plated into 96 well TC plates at a density of 15,000 cells per well. 50 μL of two fold serial dilutions of the test compound (Cmax is 40 μM) are added to each well (STI571 is included as a positive control). After incubating the cells for 48 hours at 37° C., 5% CO2, 15 μL of MTT (Promega) is added to each well and the cells are incubated for an additional 5 hours. The optical density at 570 nm is quantified spectrophotometrically and IC50 values, the concentration of compound required for 50% inhibition, determined from a dose response curve.
(§2) Compounds of the invention are tested for their antiproliferative effect on Ba/F3 cells expressing either wild type or the mutant forms of BCR-Abl (G250E, E255V, T315I, F317L, M351T) that confers resistance or diminished sensitivity to STI571. The antiproliferative effect of these compounds on the mutant-BCR-Abl expressing cells and on the non transformed cells were tested at 10, 3.3, 1.1 and 0.37 μM as described above (in media lacking IL3). The IC50 values of the compounds lacking toxicity on the untransformed cells were determined from the dose response curves obtained as describe above.

[2] = target: T2, Lck (Homo sapiens, UniProt P06239); assay: Upstate KinaseProfiler radio-enzymatic filter binding assay, Lck; assay type: biochemical; conditions: at a concentration of 10 μM; read-out: percentage inhibition of Lck
T2 construct: purchased Upstate (KinaseProfiler panel)
Description: (§3) Compounds of the invention are assessed for their ability to inhibit individual members of a panel of kinases (a partial, non-limiting list of kinases includes: BMX, CSK, TrkB, FGFR3, Fes, Lck, B-RAF, C-RAF, MKK6, SAPK2α and SAPK2β). The compounds are tested in duplicates at a final concentration of 10 μM following this generic protocol. Note that the kinase buffer composition and the substrates vary for the different kinases included in the “Upstate KinaseProfiler™” panel. Kinase buffer (2.5 μL, 10×—containing MnCl2 when required), active kinase (0.001-0.01 Units; 2.5 μL), specific or Poly(Glu4-Tyr) peptide (5-500 μM or 0.01 mg/ml) in kinase buffer and kinase buffer (50 μM; 5 μL) are mixed in an eppendorf on ice. […] The assay squares are transferred to a scintillation vial, 5 ml scintillation cocktail are added and ^32P incorporation (cpm) to the peptide substrate is quantified with a Beckman scintillation counter. Percentage inhibition is calculated for each reaction.

[3] = target: T3, E255V BCR-Abl (Homo sapiens, UniProt P00519, E255V); assay: Antiproliferative effect on Ba/F3 cells expressing E255V BCR-Abl; assay type: cell-based; conditions: Ba/F3 cells expressing E255V mutant
T3 construct: expressed in transfected cells; host or cells: Ba/F3; the other entry of the earlier key: BCR (P11274, Breakpoint cluster region protein)
Description: as §1, §2

[4] = target: B-RAF (Homo sapiens, UniProt P15056); assay: B-RAF kinase inhibition assay (IκBα substrate); assay type: biochemical; conditions: 20 μM ATP
Description: Compounds of the invention are tested for their ability to inhibit the activity of B-RAF. The assay is carried out in 384-well MaxiSorp plates (NUNC) with black walls and clear bottom. The substrate, IκBα is diluted in DPBS (1:750) and 15 μL is added to each well. The plates are incubated at 4° C. overnight and washed 3 times with TBST (25 mM Tris, pH 8.0, 150 mM NaCl and 0.05% Tween-20) using the EMBLA plate washer. Plates are blocked by Superblock (15 μL/well) for 3 hours at room temperature, washed 3 times with TBST and pat-dried. Assay buffer containing 20 μM ATP (10 μL) is added to each well followed by 100 nL or 500 nL of compound. B-RAF is diluted in the assay buffer (1 μL into 25 μl) and 10 μL of diluted B-RAF is added to each well (0.4 μg/well). The plates are incubated at room temperature for 2.5 hours. The kinase reaction is stopped by washing the plates 6 times with TBST. Phosph-IκBα (Ser32/36) antibody is diluted in Superblock (1:10,000) and 15 μL is added to each well. The plates are incubated at 4° C. overnight and washed 6 times with TBST. AP-conjugated goat-anti-mouse IgG is diluted in Superblock (1:1,500) and 15 μL is added to each well. Plates are incubated at room temperature for 1 hour and washed 6 times with TBST. […] Plates are read on Acquest or Analyst GT using a Fluorescence Intensity Nanxin BBT anion (505 dichroic mirror).

[5] = target: T4, CSK (Homo sapiens, UniProt P41240); assay: Upstate KinaseProfiler radio-enzymatic filter binding assay, CSK; assay type: biochemical; conditions: at a concentration of 10 μM; read-out: percentage inhibition of CSK
T4 construct: purchased Upstate (KinaseProfiler panel)
Description: as §3

[6] = target: T5, TrkB (Homo sapiens, UniProt Q16620); assay: Upstate KinaseProfiler radio-enzymatic filter binding assay, TrkB; assay type: biochemical; conditions: at a concentration of 10 μM; read-out: percentage inhibition of TrkB
T5 construct: purchased Upstate (KinaseProfiler panel)
Description: as §3

[7] = target: T6, wild type BCR-Abl (Homo sapiens, UniProt P00519); assay: Antiproliferative effect on Ba/F3 cells expressing wild type BCR-Abl; assay type: cell-based
T6 construct: expressed in transfected cells; host or cells: Ba/F3; the other entry of the earlier key: BCR (P11274, Breakpoint cluster region protein)
Description: as §1, §2

[8] = target: T7, c-Raf (Homo sapiens, UniProt P04049); assay: Upstate KinaseProfiler radio-enzymatic filter binding assay, c-Raf; assay type: biochemical; conditions: at a concentration of 10 μM; read-out: percentage inhibition of c-Raf
T7 construct: purchased Upstate (KinaseProfiler panel)
Description: as §3

[9] = target: T8, T315I BCR-Abl (Homo sapiens, UniProt P00519, T315I); assay: Antiproliferative effect on Ba/F3 cells expressing T315I BCR-Abl; assay type: cell-based; conditions: Ba/F3 cells expressing T315I mutant
T8 construct: expressed in transfected cells; host or cells: Ba/F3; the other entry of the earlier key: BCR (P11274, Breakpoint cluster region protein)
T8 sequence (P00519 229-512 T315I limits assumed): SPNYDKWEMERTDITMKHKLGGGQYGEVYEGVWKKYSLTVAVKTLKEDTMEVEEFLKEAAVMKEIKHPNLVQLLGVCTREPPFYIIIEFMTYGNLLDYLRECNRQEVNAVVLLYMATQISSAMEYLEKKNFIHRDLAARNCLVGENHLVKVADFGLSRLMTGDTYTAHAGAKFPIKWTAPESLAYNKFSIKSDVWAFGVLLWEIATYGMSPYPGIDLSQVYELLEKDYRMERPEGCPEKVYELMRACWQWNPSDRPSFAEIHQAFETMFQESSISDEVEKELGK
Description: as §1, §2

[10] = target: T9, SAPK2β (Homo sapiens, UniProt Q15759); assay: Upstate KinaseProfiler radio-enzymatic filter binding assay, SAPK2β; assay type: biochemical; conditions: at a concentration of 10 μM; read-out: percentage inhibition of SAPK2β
T9 construct: purchased Upstate (KinaseProfiler panel)
Description: as §3

[11] = target: T10, Fes (Homo sapiens, UniProt P07332); assay: Upstate KinaseProfiler radio-enzymatic filter binding assay, Fes; assay type: biochemical; conditions: at a concentration of 10 μM; read-out: percentage inhibition of Fes
T10 construct: purchased Upstate (KinaseProfiler panel)
Description: as §3

[12] = target: T11, Bmx (Homo sapiens, UniProt P51813); assay: Upstate KinaseProfiler radio-enzymatic filter binding assay, Bmx; assay type: biochemical; conditions: at a concentration of 10 μM; read-out: percentage inhibition of Bmx
T11 construct: purchased Upstate (KinaseProfiler panel)
T11 sequence (P51813 1-675): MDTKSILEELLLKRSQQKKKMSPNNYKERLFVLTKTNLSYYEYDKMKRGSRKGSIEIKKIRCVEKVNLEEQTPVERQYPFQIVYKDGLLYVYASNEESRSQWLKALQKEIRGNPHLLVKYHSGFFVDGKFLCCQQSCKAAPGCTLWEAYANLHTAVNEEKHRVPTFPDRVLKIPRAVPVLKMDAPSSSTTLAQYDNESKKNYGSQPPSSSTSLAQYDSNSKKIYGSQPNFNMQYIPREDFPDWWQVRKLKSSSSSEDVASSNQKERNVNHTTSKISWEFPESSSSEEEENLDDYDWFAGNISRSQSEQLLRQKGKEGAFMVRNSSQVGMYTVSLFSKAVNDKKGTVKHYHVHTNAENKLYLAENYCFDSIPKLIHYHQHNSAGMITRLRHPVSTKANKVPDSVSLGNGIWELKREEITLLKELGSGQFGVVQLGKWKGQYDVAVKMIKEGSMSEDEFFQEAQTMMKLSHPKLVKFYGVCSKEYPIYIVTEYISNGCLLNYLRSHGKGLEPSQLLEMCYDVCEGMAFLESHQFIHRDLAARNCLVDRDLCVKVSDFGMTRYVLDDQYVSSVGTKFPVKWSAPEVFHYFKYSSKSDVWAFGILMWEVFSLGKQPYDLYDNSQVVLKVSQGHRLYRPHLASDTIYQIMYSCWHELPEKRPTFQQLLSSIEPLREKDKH
Description: as §3

[13] = target: T12, F317L BCR-Abl (Homo sapiens, UniProt P00519, F317L); assay: Antiproliferative effect on Ba/F3 cells expressing F317L BCR-Abl; assay type: cell-based; conditions: Ba/F3 cells expressing F317L mutant
T12 construct: expressed in transfected cells; host or cells: Ba/F3; the other entry of the earlier key: BCR (P11274, Breakpoint cluster region protein)
Description: as §1, §2

[14] = target: T13, G250E BCR-Abl (Homo sapiens, UniProt P00519, G250E); assay: Antiproliferative effect on Ba/F3 cells expressing G250E BCR-Abl; assay type: cell-based; conditions: Ba/F3 cells expressing G250E mutant
T13 construct: expressed in transfected cells; host or cells: Ba/F3; the other entry of the earlier key: BCR (P11274, Breakpoint cluster region protein)
Description: as §1, §2

[15] = target: T14, FGFR3 (Homo sapiens, UniProt P22607); assay: Upstate KinaseProfiler radio-enzymatic filter binding assay, FGFR3; assay type: biochemical; conditions: at a concentration of 10 μM; read-out: percentage inhibition of FGFR3
T14 construct: purchased Upstate (KinaseProfiler panel)
Description: as §3

[16] = target: T15, SAPK2α (Homo sapiens, UniProt Q16539); assay: Upstate KinaseProfiler radio-enzymatic filter binding assay, SAPK2α; assay type: biochemical; conditions: at a concentration of 10 μM; read-out: percentage inhibition of SAPK2α
T15 construct: purchased Upstate (KinaseProfiler panel)
Description: as §3

[17] = target: T16, MKK6 (Homo sapiens, UniProt P52564); assay: Upstate KinaseProfiler radio-enzymatic filter binding assay, MKK6; assay type: biochemical; conditions: at a concentration of 10 μM; read-out: percentage inhibition of MKK6
T16 construct: purchased Upstate (KinaseProfiler panel)
T16 sequence (P52564 1-334): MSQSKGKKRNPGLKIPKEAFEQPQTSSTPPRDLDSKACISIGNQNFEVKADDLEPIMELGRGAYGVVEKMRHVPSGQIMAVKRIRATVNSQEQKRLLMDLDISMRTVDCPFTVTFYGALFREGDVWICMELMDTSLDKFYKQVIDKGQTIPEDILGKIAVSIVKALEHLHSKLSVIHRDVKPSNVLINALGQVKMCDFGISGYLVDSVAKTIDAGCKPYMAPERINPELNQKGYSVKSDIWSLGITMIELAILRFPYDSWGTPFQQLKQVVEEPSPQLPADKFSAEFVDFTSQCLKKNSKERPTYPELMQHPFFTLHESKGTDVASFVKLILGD
Description: as §3

T9 sequence (Q15759 whole entry): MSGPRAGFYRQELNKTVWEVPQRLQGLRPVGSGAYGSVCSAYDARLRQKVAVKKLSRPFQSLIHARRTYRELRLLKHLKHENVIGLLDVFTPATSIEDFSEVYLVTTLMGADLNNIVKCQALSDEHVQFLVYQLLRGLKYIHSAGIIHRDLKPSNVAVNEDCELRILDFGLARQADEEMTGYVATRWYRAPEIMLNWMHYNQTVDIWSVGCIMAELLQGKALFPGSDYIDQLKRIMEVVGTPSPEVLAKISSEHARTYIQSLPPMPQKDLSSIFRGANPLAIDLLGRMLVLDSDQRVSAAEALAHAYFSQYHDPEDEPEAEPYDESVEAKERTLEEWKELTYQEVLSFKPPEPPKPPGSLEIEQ
T2 sequence (P06239 whole entry): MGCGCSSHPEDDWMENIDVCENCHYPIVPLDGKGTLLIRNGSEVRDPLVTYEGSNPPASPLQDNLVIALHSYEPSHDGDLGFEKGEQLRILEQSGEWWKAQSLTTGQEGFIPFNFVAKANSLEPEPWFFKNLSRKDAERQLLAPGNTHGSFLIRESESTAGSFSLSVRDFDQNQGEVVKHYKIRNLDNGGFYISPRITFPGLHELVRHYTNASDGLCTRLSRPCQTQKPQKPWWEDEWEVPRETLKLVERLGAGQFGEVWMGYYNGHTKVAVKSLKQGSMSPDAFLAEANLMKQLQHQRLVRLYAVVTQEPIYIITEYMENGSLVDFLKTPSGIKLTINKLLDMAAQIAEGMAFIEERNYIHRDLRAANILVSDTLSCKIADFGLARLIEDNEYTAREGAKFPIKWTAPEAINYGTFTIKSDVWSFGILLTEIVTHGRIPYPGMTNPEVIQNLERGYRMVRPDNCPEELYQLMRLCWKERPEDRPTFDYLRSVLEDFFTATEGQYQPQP
T10 sequence (P07332 whole entry): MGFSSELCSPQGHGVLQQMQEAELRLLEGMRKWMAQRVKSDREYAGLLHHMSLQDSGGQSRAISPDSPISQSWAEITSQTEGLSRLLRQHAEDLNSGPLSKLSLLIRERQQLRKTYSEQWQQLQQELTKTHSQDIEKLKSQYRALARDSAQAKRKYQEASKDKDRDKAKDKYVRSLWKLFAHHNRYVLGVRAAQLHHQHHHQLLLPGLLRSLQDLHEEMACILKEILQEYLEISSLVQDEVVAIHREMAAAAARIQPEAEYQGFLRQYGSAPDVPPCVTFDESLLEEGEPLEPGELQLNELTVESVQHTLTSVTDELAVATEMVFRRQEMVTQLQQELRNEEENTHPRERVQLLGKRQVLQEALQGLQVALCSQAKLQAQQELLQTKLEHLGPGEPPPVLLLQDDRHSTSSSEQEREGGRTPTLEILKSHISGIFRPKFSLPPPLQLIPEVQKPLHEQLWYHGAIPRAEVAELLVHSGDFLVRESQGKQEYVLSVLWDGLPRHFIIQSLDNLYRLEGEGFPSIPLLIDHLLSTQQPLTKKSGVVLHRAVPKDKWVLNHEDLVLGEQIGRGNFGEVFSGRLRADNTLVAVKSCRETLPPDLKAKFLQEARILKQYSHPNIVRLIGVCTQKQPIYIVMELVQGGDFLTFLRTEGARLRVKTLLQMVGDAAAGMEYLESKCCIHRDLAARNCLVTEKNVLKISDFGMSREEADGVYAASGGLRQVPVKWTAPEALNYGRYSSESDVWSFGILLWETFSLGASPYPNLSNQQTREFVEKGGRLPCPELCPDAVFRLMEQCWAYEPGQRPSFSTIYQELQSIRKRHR
T7 sequence (P04049 whole entry): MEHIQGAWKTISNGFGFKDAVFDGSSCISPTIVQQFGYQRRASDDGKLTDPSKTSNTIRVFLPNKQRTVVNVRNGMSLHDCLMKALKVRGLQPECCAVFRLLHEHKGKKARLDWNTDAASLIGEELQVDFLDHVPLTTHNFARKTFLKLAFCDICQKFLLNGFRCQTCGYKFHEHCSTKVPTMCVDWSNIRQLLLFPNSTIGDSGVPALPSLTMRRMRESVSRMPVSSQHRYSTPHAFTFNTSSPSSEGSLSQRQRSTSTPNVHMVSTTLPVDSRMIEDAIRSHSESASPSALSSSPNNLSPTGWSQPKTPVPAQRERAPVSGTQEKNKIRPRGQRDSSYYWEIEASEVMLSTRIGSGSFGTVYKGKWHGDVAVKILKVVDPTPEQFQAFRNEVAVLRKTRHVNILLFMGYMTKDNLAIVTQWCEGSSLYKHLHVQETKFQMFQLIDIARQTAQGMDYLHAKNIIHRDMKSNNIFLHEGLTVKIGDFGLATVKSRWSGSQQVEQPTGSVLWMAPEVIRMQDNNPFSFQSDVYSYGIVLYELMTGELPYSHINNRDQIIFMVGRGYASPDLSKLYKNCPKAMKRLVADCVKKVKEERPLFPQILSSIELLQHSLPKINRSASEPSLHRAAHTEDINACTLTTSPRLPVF
T5 sequence (Q16620 32-822): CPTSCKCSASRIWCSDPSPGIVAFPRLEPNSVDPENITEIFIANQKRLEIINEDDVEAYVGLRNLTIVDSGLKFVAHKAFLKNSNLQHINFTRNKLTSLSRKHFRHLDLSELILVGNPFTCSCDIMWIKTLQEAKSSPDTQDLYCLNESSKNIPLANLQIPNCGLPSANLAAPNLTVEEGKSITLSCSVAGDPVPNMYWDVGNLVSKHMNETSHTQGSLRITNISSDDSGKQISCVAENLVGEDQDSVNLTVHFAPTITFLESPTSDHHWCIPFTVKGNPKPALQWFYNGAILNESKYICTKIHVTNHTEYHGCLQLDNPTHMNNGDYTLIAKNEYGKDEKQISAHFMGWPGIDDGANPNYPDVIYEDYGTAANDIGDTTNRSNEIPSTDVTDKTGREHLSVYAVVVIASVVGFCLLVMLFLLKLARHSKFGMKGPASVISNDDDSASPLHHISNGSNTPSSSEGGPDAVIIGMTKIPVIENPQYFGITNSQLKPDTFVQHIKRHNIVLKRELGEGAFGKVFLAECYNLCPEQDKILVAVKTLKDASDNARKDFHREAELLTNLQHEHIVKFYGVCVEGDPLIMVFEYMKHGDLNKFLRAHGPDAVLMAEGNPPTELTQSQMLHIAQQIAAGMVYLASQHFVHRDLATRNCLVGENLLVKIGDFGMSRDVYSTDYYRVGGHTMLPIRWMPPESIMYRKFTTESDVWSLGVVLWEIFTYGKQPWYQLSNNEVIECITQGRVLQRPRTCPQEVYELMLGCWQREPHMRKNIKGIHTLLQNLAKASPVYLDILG
T14 sequence (P22607 23-806): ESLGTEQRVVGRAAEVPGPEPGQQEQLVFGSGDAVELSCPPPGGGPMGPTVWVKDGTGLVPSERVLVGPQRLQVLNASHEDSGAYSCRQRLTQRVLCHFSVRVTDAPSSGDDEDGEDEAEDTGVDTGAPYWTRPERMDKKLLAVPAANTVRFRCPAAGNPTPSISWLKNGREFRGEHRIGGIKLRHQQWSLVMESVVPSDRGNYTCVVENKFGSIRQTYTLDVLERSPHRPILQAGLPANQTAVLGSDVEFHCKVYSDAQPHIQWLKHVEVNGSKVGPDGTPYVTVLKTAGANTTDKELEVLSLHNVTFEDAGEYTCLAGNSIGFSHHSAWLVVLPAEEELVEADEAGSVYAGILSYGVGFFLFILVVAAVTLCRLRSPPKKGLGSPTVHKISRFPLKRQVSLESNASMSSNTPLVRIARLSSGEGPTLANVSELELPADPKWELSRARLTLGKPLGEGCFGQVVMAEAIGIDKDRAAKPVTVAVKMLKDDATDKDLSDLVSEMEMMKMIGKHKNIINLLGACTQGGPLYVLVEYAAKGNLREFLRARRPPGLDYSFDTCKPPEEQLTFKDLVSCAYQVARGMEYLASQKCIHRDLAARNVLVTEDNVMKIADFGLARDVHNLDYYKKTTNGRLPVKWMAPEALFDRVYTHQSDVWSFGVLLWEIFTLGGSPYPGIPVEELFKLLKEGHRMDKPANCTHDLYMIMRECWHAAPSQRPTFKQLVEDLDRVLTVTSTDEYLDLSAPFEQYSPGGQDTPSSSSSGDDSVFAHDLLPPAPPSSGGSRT
Sequence of B-RAF (P15056 whole entry, species assumed): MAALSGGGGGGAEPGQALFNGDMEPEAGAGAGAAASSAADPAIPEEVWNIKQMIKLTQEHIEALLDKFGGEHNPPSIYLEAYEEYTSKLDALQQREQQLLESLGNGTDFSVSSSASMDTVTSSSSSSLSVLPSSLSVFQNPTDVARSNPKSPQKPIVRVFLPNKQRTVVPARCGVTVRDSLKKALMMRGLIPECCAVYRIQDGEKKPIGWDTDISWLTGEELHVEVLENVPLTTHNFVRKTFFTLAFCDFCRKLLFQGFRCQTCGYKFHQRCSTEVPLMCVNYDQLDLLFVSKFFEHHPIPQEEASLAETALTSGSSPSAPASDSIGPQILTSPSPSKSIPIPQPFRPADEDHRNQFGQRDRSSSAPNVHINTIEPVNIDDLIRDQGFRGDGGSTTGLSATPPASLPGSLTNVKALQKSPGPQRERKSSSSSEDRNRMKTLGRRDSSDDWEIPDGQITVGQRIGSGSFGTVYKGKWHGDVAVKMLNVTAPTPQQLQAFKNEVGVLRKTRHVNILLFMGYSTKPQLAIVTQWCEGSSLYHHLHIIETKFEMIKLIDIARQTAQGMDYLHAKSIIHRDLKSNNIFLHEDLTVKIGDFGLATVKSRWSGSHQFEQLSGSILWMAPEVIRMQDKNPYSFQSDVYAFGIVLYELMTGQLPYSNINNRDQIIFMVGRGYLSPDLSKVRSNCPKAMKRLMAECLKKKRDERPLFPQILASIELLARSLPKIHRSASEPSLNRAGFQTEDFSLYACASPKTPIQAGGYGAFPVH
T15 sequence (Q16539 whole entry): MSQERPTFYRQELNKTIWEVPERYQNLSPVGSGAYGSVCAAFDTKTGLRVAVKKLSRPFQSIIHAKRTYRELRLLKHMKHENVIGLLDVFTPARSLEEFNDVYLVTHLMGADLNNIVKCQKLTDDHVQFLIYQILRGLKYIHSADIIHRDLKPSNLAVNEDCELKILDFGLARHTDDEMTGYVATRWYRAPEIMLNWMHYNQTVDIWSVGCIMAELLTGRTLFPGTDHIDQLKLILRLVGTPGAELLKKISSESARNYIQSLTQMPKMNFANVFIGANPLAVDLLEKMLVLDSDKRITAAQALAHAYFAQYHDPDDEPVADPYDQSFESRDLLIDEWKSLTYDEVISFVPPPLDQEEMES

IC50 [1] [nM] | inhibition at 10 µM [2] [%] | IC50 [3] [nM] | IC50 [4] [nM] | inhibition at 10 µM [5] [%] | inhibition at 10 µM [6] [%] | IC50 [7] [nM] | inhibition at 10 µM [8] [%] | IC50 [9] [nM] | inhibition at 10 µM [10] [%] | inhibition at 10 µM [11] [%] | inhibition at 10 µM [12] [%] | IC50 [13] [nM] | IC50 [14] [nM] | inhibition at 10 µM [15] [%] | inhibition at 10 µM [16] [%] | inhibition at 10 µM [17] [%] | Structure (SMILES)
29 | 95 | 220 | 32 | 90 | 100 | 22 | 83 | 370 | 95 | 82 | 100 | 50 | 170 | – | – | – | Cc1cn(-c2cc(C(=O)Nc3ccc(C)c(NC(=O)n4ccc5c(Nc6cccc(N(C)C)c6)ncnc54)c3)cc(C(F)(F)F)c2)cn1 [Example 3, 4-(3-Dimethylamino-phenylamino)-pyrrolo[2,3-d]pyrimidine-7-carboxylic acid {2-methyl-5-[3-(4-methyl-imidazol-1-yl)-5-trifluoromethyl-benzoylamino]-phenyl}-amide]
5 | 96 | 31 | – | 100 | 98 | 5 | 99 | 115 | 100 | 98 | 100 | 9 | 47 | 95 | 100 | 98 | Cc1cn(-c2cc(C(=O)Nc3ccc(C)c(NC(=O)n4ccc5c(Nc6cccc(C(N)=O)c6)ncnc54)c3)cc(C(F)(F)F)c2)cn1 [Example 7, 4-(3-Carbamoyl-phenylamino)-pyrrolo[2,3-d]pyrimidine-7-carboxylic acid {2-methyl-5-[3-(4-methyl-imidazol-1-yl)-5-trifluoromethyl-benzoylamino]-phenyl}-amide]
